Here are results for 25 molecules from patent US20090018166A1, “New Pyridine Analogues X 161” (ASTRAZENECA AB, priority 2007, published 2009).

T1 sequence (Q9H244 whole entry): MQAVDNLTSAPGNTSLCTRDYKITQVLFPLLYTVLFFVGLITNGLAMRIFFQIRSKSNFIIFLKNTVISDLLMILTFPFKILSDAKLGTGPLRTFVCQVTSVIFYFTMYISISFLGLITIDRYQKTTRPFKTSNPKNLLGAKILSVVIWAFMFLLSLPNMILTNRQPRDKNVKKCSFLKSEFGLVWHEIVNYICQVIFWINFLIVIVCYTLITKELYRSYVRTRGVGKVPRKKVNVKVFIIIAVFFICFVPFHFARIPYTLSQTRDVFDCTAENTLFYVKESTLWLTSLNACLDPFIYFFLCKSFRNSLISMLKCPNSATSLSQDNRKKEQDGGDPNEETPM

This assay addresses T1, P2Y12 receptor (Homo sapiens, UniProt Q9H244).
T1 construct: expressed in transfected cells; host or cells: CHO cells (membranes)
In words: Functional inhibition of 2-Me-S-ADP induced P2Y12 signalling (35S-GTPγS binding, membranes from P2Y12 transfected CHO-cells). The format is biochemical. Conditions: 35S-GTPγS, EC80 of 2-methyl-thio-adenosine diphosphate, P2Y12 CHO membranes; value given in each example; read-out: GTPγS(IC50 μM). As to the method:
Functional inhibition of- the P2Y12 receptor can be measured by in vitro assays using cell membranes from P2Y12 transfected CHO-cells, the methodology is indicated below.
Functional inhibition of 2-Me-S-ADP induced P2Y12 signalling: 5 μg of membranes were diluted in 200 μl of 200 mM NaCl, 1 mM MgCl2, 50 mM HEPES (pH 7.4), 0.01% BSA, 30 μg/ml saponin and 10 μM GDP. To this was added an EC80 concentration of agonist (2-methyl-thio-adenosine diphosphate), the required concentration of test compound and 0.1 μCi ^35S-GTPγS. The reaction was allowed to proceed at 30° C. for 45 min. Samples were then transferred on to GF/B filters using a cell harvester and washed with wash buffer (50 mM Tris (pH 7.4), 5 mM MgCl2, 50 mM NaCl). Filters were then covered with scintilant and counted for the amount of ^35S-GTPγS retained by the filter. Maximum activity was that determined in the presence of the agonist and minimum activity in the absence of the agonist following subtraction of the value determined for non-specific activity. The effect of compounds at various concentrations was plotted according to the equation
y=A+((B−A)/(1+((C/x)̂D)))
and IC50 estimated where A is the bottom plateau of the curve i.e. the final minimum y value B is the top of the plateau of the curve i.e. the final maximum y value C is the x value at the middle of the curve. This represents the log EC50 value when A+B=100 D is the slope factor. x is the original known x values. Y is the original known y values.
On the technique in general: Binding of GTPγS marks nucleotide exchange on a G protein.
Usually IC50 stands for the concentration needed to halve the response being measured. For `CN(c1ccc(F)cc1)S(=O)(=O)NC(=O)C1CCN(c2nc(CN3CCCC3=O)c(C(=O)C3CC3)cc2C#N)CC1` [Example 25, 1-{3-Cyano-5-(cyclopropylcarbonyl)-6-[(2-oxopyrrolidin-1-yl)methyl]pyridin-2-yl}-N-{[(4-fluorophenyl)(methyl)amino]sulfonyl}piperidine-4-carboxamide], the IC50 came out at 0.026 µM.

Turning to `C=CCCC(=O)c1cc(C#N)c(N2CCC(C(=O)NS(=O)(=O)Cc3ccccc3)CC2)nc1CN1CCCC1=O` [Example 26, N-(benzylsulfonyl)-1-{3-cyano-6-[(2-oxopyrrolidin-1-yl)methyl]-5-pent-4-enoylpyridin-2-yl}piperidine-4-carboxamide], the IC50 is 0.017 µM.

Consider `C=CCCC(=O)c1cc(C#N)c(N2CCC(C(=O)NS(=O)(=O)CC3CCCC3)CC2)nc1CN1CCCC1=O` [Example 27, 1-{3-cyano-6-[(2-oxopyrrolidin-1-yl)methyl]-5-pent-4-enoylpyridin-2-yl}-N-[(cyclopentylmethyl)sulfonyl]piperidine-4-carboxamide], for which the IC50 came to 0.02 µM.

For the molecule `C=CCCC(=O)c1cc(C#N)c(N2CCC(C(=O)NS(=O)(=O)N(C)c3ccc(F)cc3)CC2)nc1CN1CCCC1=O` [Example 28, 1-{3-cyano-6-[(2-oxopyrrolidin-1-yl)methyl]-5-pent-4-enoylpyridin-2-yl}-N-{[(4-fluorophenyl)(methyl)amino]sulfonyl}piperidine-4-carboxamide], the IC50 was 0.022 µM.

In the case of `C=CCCC(=O)c1cc(C#N)c(N2CCC(C(=O)NS(=O)(=O)N(C)c3ccccc3)CC2)nc1CN1CCCC1=O` [Example 29, 1-{3-cyano-6-[(2-oxopyrrolidin-1-yl)methyl]-5-pent-4-enoylpyridin-2-yl}-N-{[methyl(phenyl)amino]sulfonyl}piperidine-4-carboxamide], the 50% inhibitory concentration (IC50) turned out to be 0.013 µM.

On to `CCCC(=O)c1cc(Cl)c(N2CCC(C(=O)NS(=O)(=O)Cc3ccccc3)CC2)nc1CN1CCCC1=O` [Example 30, N-(Benzylsulfonyl)-1-{5-butyryl-3-chloro-6-[(2-oxopyrrolidin-1-yl)methyl]pyridin-2-yl}piperidine-4-carboxamide], for which the IC50 came to 0.062 µM.

With `CCCC(=O)c1cc(Cl)c(N2CCC(C(=O)NS(=O)(=O)N(C)c3ccc(F)cc3)CC2)nc1CN1CCCC1=O` [Example 31, 1-{5-Butyryl-3-chloro-6-[(2-oxopyrrolidin-1-yl)methyl]pyridin-2-yl}-N-{[(4-fluorophenyl)(methyl)amino]sulfonyl}piperidine-4-carboxamide], the 50% inhibitory concentration (IC50) was 0.109 µM.

For the molecule `CCCC(=O)c1cc(Cl)c(N2CCC(C(=O)NS(=O)(=O)Cc3ccc(C)cc3)CC2)nc1CN1CCCC1=O` [Example 32, 1-{5-Butyryl-3-chloro-6-[(2-oxopyrrolidin-1-yl)methyl]pyridin-2-yl}-N-[(4-methylbenzyl)sulfonyl]piperidine-4-carboxamide], the IC50 came out at 0.055 µM.

As to `CCCC(=O)c1cc(C#N)c(N2CCC(C(=O)NS(=O)(=O)N(C)c3ccc(F)cc3)CC2)nc1CN1CCCC1=O` [Example 33, 1-{5-Butyryl-3-cyano-6-[(2-oxopyrrolidin-1-yl)methyl]pyridin-2-yl}-N-{[(4-fluorophenyl)(methyl)amino]sulfonyl}piperidine-4-carboxamide], the half-inhibitory concentration (IC50) was 0.011 µM.

As to `CCCC(=O)c1cc(C#N)c(N2CCC(C(=O)NS(=O)(=O)N(C)c3ccccc3)CC2)nc1CN1CCCC1=O` [Example 34, 1-{5-Butyryl-3-cyano-6-[(2-oxopyrrolidin-1-yl)methyl]pyridin-2-yl}-N-{[methyl(phenyl)amino]sulfonyl}piperidine-4-carboxamide], the IC50 is 0.012 µM.

Turning to `CCCC(=O)c1cc(C#N)c(N2CCC(C(=O)NS(=O)(=O)Cc3ccc(OC)cc3)CC2)nc1CN1CCCC1=O` [Example 35, 1-{5-Butyryl-3-cyano-6-[(2-oxopyrrolidin-1-yl)methyl]pyridin-2-yl}-N-[(4-methoxybenzyl)sulfonyl]piperidine-4-carboxamide], the half-maximal inhibitory concentration (IC50) was 0.0097 µM.

In the case of `CCCC(=O)c1cc(C#N)c(N2CCC(C(=O)NS(=O)(=O)CC3CCCCC3)CC2)nc1CN1CCCC1=O` [Example 36, 1-{5-Butyryl-3-cyano-6-[(2-oxopyrrolidin-1-yl)methyl]pyridin-2-yl}-N-[(cyclohexylmethyl)sulfonyl]piperidine-4-carboxamide], the concentration for half-maximal inhibition (IC50) is 0.014 µM.

`CCCC(=O)c1cc(C#N)c(N2CCC(C(=O)NS(=O)(=O)Nc3ccc(F)cc3)CC2)nc1CN1CCCC1=O` [Example 37, 1-{5-Butyryl-3-cyano-6-[(2-oxopyrrolidin-1-yl)methyl]pyridin-2-yl}-N-{[(4-fluorophenyl)amino]sulfonyl}piperidine-4-carboxamide]: the IC50 stood at 0.019 µM.

Take `CCCC(=O)c1cc(C#N)c(N2CCC(C(=O)NS(=O)(=O)Nc3ccccc3)CC2)nc1CN1CCCC1=O` [Example 38, N-(Anilinosulfonyl)-1-{5-butyryl-3-cyano-6-[(2-oxopyrrolidin-1-yl)methyl]pyridin-2-yl}piperidine-4-carboxamide]: the IC50 turned out to be 0.033 µM.

`C=CCCC(=O)c1cc(C#N)c(N2CCC(C(=O)NS(=O)(=O)Cc3ccc(C)cc3)CC2)nc1CN1CCCC1=O` [Example 40, 1-{3-cyano-6-[(2-oxopyrrolidin-1-yl)methyl]-5-pent-4-enoylpyridin-2-yl}-N-[(4-methylbenzyl)sulfonyl]piperidine-4-carboxamide]: the half-inhibitory concentration (IC50) amounted to 0.0081 µM.

For `C=CCCC(=O)c1cc(C#N)c(N2CCC(C(=O)NS(=O)(=O)Cc3ccc(F)cc3F)CC2)nc1CN1CCCC1=O` [Example 41, 1-{3-cyano-6-[(2-oxopyrrolidin-1-yl)methyl]-5-pent-4-enoylpyridin-2-yl}-N-[(2,4-difluorobenzyl)sulfonyl]piperidine-4-carboxamide], the half-maximal inhibitory concentration (IC50) was 0.009 µM.

Turning to `N#Cc1cc(C(=O)CCC(F)(F)F)c(CN2CCCC2=O)nc1N1CCC(C(=O)NS(=O)(=O)Cc2ccc(F)cc2F)CC1` [Example 42, 1-{3-Cyano-6-[(2-oxopyrrolidin-1-yl)methyl]-5-(4,4,4-trifluorobutanoyl)pyridin-2-yl}-N-[(2,4-difluorobenzyl)sulfonyl]piperidine-4-carboxamide], the IC50 is 0.016 µM.

With `Cc1ccc(CS(=O)(=O)NC(=O)C2CCN(c3nc(CN4CCCC4=O)c(C(=O)CCC(F)(F)F)cc3C#N)CC2)cc1` [Example 43, 1-{3-cyano-6-[(2-oxopyrrolidin-1-yl)methyl]-5-(4,4,4-trifluorobutanoyl)pyridin-2-yl}-N-[(4-methylbenzyl)sulfonyl]piperidine-4-carboxamide], the IC50 turned out to be 0.019 µM.

Regarding `N#Cc1cc(C(=O)CCC(F)(F)F)c(CN2CCCC2=O)nc1N1CCC(C(=O)NS(=O)(=O)CC2CCCC2)CC1` [Example 44, 1-{3-cyano-6-[(2-oxopyrrolidin-1-yl)methyl]-5-(4,4,4-trifluorobutanoyl)pyridin-2-yl}-N-[(cyclopentylmethyl)sulfonyl]piperidine-4-carboxamide], the IC50 came to 0.146 µM.

As to `CN(c1ccc(F)cc1)S(=O)(=O)NC(=O)C1CCN(c2nc(CN3CCCC3=O)c(C(=O)CCC(F)(F)F)cc2C#N)CC1` [Example 45, 1-{3-cyano-6-[(2-oxopyrrolidin-1-yl)methyl]-5-(4,4,4-trifluorobutanoyl)pyridin-2-yl}-N-{[(4-fluorophenyl)(methyl)amino]sulfonyl}piperidine-4-carboxamide], the 50% inhibitory concentration (IC50) is 0.05 µM.

In the case of `CCCCC(=O)c1cc(C#N)c(N2CCC(C(=O)NS(=O)(=O)Nc3ccc(F)cc3)CC2)nc1CN1CCCC1=O` [Example 46, 1-{3-cyano-6-[(2-oxopyrrolidin-1-yl)methyl]-5-pentanoylpyridin-2-yl}-N-{[(4-fluorophenyl)amino]sulfonyl}piperidine-4-carboxamide], the IC50 came out at 0.021 µM.

Take `CCCCC(=O)c1cc(C#N)c(N2CCC(C(=O)NS(=O)(=O)Cc3ccc(C#N)cc3)CC2)nc1CN1CCCC1=O` [Example 47, N-[(4-cyanobenzyl)sulfonyl]-1-{3-cyano-6-[(2-oxopyrrolidin-1-yl)methyl]-5-pentanoylpyridin-2-yl}piperidine-4-carboxamide]: the IC50 is 0.043 µM.

With `CCCCC(=O)c1cc(C#N)c(N2CCC(C(=O)NS(=O)(=O)CC3CCCCC3)CC2)nc1CN1CCCC1=O` [Example 48, 1-{3-cyano-6-[(2-oxopyrrolidin-1-yl)methyl]-5-pentanoylpyridin-2-yl}-N-[(cyclohexylmethyl)sulfonyl]piperidine-4-carboxamide], the IC50 was found to be 0.023 µM.

As to `CCCCC(=O)c1cc(C#N)c(N2CCC(C(=O)NS(=O)(=O)Cc3ccc(C(C)C)cc3)CC2)nc1CN1CCCC1=O` [Example 49, 1-{3-cyano-6-[(2-oxopyrrolidin-1-yl)methyl]-5-pentanoylpyridin-2-yl}-N-[(4-isopropylbenzyl)sulfonyl]piperidine-4-carboxamide], the concentration for half-maximal inhibition (IC50) is 0.031 µM.

Consider `C=CCCC(=O)c1cc(Cl)c(N2CCC(C(=O)NS(=O)(=O)N(C)c3ccc(F)cc3)CC2)nc1CN1CCCC1=O` [Example 50, 1-{3-chloro-6-[(2-oxopyrrolidin-1-yl)methyl]-5-pent-4-enoylpyridin-2-yl}-N-{[(4-fluorophenyl)(methyl)amino]sulfonyl}piperidine-4-carboxamide], for which the IC50 came out at 0.167 µM.
